This note sets out measurements from publication PMC4685510, “A Cell Biologist’s Field Guide to Aurora Kinase Inhibitors” (Frontiers in Oncology, 2015).

Common to all, as to assay: biochemical
Assay type in all cases: biochemical

Experiment [1] has as its target 363 human kinases (including Aurora A/B/C) (Homo sapiens, UniProt Q9H2G2). Particulars: SLK/STK2; for remaining activity at 0.5 µM / remaining activity at 0.1 µM: read-out: % Enzyme Activity (relative to DMSO controls); for remaining activity at 0.1 µM: 100 nM.
Excerpt: (§1) However, the Aurora A/B selectivity ratios derived from our in vitro and in vivo data can be compared to prioritize inhibitors.
Experiment [2] deals with 363 human kinases (including Aurora A/B/C) (Homo sapiens, UniProt P53671). Particulars: LIMK2; for remaining activity at 0.5 µM / remaining activity at 0.1 µM: read-out: % Enzyme Activity (relative to DMSO controls); for remaining activity at 0.1 µM: 100 nM.
363 human kinases (including Aurora A/B/C) (Homo sapiens, UniProt P53671), sequence (P53671 whole entry): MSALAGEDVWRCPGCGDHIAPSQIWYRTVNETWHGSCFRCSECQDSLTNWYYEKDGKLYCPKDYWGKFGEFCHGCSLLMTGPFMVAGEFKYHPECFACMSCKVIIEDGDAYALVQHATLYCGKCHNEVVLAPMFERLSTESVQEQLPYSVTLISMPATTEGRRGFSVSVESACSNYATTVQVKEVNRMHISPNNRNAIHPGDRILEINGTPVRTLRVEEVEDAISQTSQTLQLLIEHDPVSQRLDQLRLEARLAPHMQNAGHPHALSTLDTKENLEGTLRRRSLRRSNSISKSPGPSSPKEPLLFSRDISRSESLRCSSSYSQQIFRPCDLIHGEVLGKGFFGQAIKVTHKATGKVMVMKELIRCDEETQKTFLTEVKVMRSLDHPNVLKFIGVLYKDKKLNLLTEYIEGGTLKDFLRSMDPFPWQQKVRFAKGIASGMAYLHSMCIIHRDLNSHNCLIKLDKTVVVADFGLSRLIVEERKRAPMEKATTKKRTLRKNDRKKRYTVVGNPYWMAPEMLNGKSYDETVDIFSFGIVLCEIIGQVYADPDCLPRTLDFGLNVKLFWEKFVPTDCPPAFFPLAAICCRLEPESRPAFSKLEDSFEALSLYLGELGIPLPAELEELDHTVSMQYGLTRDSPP
Excerpt: as §1
The target of experiment [3] is 363 human kinases (including Aurora A/B/C) (Homo sapiens, UniProt Q13153). Particulars: PAK1; for remaining activity at 0.5 µM / remaining activity at 0.1 µM: read-out: % Enzyme Activity (relative to DMSO controls); for remaining activity at 0.1 µM: 100 nM.
363 human kinases (including Aurora A/B/C) (Homo sapiens, UniProt Q13153), sequence (Q13153 whole entry): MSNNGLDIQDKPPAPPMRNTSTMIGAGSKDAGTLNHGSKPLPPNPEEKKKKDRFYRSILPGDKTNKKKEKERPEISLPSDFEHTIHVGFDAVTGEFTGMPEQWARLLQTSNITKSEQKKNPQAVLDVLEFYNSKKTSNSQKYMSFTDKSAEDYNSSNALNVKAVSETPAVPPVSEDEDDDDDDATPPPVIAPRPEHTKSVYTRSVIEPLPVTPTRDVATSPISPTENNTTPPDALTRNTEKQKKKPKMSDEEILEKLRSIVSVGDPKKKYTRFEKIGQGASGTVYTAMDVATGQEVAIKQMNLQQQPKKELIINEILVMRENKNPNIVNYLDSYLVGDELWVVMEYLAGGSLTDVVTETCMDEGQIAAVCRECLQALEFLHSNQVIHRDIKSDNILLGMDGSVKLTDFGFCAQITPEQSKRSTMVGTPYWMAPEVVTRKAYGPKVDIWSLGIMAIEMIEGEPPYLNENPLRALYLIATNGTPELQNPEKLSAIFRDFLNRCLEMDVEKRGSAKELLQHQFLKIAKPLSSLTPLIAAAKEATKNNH
Excerpt: as §1
Experiment [4] deals with 363 human kinases (including Aurora A/B/C) (Homo sapiens, UniProt P53355). Particulars: DAPK1, [ATP] 10 µM; for remaining activity at 0.5 µM / remaining activity at 0.1 µM: read-out: % Enzyme Activity (relative to DMSO controls); for remaining activity at 0.1 µM: 100 nM.
363 human kinases (including Aurora A/B/C) (Homo sapiens, UniProt P53355), sequence (P53355 whole entry): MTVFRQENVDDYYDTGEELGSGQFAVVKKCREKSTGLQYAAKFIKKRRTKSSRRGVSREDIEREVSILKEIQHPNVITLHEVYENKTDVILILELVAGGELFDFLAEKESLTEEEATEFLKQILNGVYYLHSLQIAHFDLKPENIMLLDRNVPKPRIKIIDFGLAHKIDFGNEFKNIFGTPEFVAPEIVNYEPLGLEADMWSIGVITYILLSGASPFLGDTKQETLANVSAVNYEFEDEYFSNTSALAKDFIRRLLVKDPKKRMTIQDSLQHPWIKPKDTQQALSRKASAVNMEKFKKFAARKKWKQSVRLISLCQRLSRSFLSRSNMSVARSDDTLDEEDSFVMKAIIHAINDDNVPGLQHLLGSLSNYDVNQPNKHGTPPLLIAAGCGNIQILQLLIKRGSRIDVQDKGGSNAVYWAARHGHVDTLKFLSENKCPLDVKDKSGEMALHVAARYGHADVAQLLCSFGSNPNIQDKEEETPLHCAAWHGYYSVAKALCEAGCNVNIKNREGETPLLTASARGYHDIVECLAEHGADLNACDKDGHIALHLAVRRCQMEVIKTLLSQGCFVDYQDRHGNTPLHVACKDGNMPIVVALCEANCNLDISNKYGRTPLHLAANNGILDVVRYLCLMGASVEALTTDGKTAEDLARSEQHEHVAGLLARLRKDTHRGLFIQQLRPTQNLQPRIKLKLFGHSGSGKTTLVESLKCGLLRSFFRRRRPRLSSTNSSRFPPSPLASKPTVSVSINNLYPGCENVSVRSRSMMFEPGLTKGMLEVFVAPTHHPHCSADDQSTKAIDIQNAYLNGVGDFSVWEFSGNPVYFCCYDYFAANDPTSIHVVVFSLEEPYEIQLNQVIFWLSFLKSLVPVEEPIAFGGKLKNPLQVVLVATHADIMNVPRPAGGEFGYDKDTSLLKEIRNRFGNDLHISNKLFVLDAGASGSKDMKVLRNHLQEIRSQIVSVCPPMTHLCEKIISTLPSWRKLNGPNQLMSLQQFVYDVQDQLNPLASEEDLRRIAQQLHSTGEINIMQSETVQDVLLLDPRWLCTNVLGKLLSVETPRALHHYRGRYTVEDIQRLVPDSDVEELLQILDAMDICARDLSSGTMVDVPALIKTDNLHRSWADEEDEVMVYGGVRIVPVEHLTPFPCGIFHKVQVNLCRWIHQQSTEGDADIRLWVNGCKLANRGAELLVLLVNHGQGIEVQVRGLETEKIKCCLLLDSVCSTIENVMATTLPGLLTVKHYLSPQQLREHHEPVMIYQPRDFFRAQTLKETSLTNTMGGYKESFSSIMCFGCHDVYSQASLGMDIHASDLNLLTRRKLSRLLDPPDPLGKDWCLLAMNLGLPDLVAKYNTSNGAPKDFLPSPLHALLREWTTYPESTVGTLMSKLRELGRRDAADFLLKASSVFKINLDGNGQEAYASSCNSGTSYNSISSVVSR
Excerpt: as §1
Experiment [5] deals with T1, 363 human kinases (including Aurora A/B/C) (Homo sapiens, UniProt Q6PHR2).
T1 sequence (Q6PHR2 1-472): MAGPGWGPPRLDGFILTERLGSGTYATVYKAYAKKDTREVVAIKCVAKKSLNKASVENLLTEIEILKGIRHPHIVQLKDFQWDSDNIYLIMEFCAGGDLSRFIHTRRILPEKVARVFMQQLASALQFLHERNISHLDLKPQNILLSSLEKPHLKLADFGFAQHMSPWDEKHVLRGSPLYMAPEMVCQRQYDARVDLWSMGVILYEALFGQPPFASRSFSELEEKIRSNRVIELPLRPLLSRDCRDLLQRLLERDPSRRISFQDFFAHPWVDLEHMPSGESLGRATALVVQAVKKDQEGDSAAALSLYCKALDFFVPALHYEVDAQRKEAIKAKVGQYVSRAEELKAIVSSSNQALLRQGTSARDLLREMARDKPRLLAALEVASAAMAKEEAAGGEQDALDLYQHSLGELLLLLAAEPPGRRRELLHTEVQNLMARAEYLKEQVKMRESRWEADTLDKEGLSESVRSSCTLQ
Particulars: ULK3; for remaining activity at 0.5 µM / remaining activity at 0.1 µM: read-out: % Enzyme Activity (relative to DMSO controls); for remaining activity at 0.1 µM: 100 nM.
Excerpt: as §1

The target in experiment [6] is 363 human kinases (including Aurora A/B/C) (Homo sapiens, UniProt P19784). Particulars: CK2a2, [ATP] 30 µM; for remaining activity at 0.5 µM / remaining activity at 0.1 µM: read-out: % Enzyme Activity (relative to DMSO controls); for remaining activity at 0.1 µM: 100 nM.
363 human kinases (including Aurora A/B/C) (Homo sapiens, UniProt P19784), sequence (P19784 whole entry): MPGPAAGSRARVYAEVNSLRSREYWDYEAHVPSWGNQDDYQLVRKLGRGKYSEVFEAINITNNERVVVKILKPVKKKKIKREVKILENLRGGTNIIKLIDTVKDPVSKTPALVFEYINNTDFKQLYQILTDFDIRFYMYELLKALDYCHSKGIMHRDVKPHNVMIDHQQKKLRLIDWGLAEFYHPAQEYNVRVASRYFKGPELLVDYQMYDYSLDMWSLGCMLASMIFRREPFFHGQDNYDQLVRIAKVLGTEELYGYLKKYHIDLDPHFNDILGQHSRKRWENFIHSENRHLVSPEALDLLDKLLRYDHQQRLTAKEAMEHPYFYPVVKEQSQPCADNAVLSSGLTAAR
Excerpt: as §1
The target of experiment [7] is T2, 363 human kinases (including Aurora A/B/C) (Homo sapiens, UniProt Q13237).
T2 sequence (Q13237 1-762): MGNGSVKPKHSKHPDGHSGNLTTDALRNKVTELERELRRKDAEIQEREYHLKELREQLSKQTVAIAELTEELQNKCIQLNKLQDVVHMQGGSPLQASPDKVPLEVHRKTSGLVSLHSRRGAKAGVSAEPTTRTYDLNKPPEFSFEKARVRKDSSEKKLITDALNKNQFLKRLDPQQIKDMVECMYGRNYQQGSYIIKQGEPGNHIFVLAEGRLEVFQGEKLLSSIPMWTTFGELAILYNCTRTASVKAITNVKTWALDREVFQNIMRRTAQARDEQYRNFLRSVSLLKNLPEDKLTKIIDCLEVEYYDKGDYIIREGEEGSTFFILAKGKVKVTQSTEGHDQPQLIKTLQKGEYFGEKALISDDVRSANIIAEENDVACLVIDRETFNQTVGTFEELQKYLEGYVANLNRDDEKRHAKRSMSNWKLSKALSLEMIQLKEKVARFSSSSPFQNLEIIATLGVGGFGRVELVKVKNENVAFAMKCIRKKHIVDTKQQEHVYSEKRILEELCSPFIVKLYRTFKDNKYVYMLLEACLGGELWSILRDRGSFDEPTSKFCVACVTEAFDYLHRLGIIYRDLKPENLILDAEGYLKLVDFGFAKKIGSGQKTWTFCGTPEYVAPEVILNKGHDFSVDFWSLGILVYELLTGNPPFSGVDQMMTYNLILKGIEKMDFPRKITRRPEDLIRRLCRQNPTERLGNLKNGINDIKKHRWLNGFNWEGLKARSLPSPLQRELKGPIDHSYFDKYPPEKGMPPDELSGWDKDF
Particulars: PKG2/PRKG2; for remaining activity at 0.5 µM / remaining activity at 0.1 µM: read-out: % Enzyme Activity (relative to DMSO controls); for remaining activity at 0.1 µM: 100 nM.
Excerpt: as §1

The target in experiment [8] is T3, 363 human kinases (including Aurora A/B/C) (Homo sapiens, UniProt P41743).
T3 sequence (P41743 1-596): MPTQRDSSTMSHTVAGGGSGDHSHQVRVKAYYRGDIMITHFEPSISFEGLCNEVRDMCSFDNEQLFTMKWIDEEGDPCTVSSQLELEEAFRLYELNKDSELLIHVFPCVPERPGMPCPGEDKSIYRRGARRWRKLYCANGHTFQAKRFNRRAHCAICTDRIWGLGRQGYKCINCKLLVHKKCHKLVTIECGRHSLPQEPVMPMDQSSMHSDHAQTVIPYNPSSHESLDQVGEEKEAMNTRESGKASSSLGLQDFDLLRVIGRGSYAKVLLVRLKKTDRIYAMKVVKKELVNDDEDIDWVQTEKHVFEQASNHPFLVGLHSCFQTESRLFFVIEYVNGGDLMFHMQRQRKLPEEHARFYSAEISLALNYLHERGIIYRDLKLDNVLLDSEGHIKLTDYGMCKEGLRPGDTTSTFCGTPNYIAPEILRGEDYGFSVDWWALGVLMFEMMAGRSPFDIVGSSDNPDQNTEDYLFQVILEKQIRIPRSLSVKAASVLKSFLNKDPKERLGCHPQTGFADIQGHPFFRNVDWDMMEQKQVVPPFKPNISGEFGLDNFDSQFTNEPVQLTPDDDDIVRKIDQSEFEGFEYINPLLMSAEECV
Particulars: PKCiota; for remaining activity at 0.5 µM / remaining activity at 0.1 µM: read-out: % Enzyme Activity (relative to DMSO controls); for remaining activity at 0.1 µM: 100 nM.
Excerpt: as §1

363 human kinases (including Aurora A/B/C) (Homo sapiens, UniProt Q9H2G2), sequence (Q9H2G2 whole entry): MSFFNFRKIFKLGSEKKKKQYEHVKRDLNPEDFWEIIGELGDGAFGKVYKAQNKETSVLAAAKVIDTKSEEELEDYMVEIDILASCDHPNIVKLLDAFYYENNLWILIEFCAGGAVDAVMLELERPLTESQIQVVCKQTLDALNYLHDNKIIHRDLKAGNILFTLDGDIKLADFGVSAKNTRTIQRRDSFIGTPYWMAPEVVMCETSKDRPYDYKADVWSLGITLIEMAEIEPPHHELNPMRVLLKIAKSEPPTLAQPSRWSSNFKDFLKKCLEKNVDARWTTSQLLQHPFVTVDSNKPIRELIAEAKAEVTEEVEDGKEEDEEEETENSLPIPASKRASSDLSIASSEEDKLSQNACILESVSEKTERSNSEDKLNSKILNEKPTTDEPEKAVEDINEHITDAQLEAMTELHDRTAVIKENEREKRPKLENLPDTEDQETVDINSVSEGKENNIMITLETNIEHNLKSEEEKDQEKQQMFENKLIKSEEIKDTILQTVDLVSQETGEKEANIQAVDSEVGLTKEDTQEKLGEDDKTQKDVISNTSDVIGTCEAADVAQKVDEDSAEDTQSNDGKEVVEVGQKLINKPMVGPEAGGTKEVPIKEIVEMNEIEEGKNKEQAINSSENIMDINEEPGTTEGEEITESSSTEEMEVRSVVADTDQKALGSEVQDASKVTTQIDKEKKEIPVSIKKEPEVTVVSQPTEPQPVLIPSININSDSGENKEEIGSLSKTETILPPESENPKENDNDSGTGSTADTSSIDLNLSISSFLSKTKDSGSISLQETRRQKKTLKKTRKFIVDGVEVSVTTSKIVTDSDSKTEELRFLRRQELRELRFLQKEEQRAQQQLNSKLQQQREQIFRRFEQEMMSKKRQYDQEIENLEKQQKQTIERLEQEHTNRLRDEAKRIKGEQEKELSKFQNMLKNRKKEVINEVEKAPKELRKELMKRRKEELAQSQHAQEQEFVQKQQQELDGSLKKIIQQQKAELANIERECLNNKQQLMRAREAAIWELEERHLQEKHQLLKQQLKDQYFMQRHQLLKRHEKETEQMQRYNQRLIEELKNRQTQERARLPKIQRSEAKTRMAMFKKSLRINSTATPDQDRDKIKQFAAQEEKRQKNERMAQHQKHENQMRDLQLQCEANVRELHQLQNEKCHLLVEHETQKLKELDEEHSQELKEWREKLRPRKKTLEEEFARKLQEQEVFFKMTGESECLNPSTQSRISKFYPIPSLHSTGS

As to `O=C(c1cccc(Cl)c1F)N1CCN(Cc2cccc(Nc3nccs3)n2)CC1` [MK-8745], the “% Enzyme Activity (relative to DMSO controls)” value in experiment [1] (500 nM) is given as 77.19%; in experiment [2] (500 nM), 97.95%; in experiment [3] (500 nM), 85.62%; in experiment [4] (500 nM), 98.77%; in experiment [5] (500 nM) it was 93.40%; in experiment [6] (500 nM), 85.44%. For the same molecule, the “% Enzyme Activity (relative to DMSO controls)” value in experiment [7] (500 nM) was determined as 95.25%; in experiment [8] (500 nM) it was 95.15%. Further, the remaining activity at 0.5 µM amounted to 77.7% in experiment [1] (500 nM); 98.4% in experiment [2] (500 nM); 87.5% in experiment [3] (500 nM); 101% in experiment [4] (500 nM); 94.4% in experiment [5] (500 nM); 85.8% in experiment [6] (500 nM). In addition, the remaining activity at 0.5 µM in experiment [7] (500 nM) came out at 95.3%; in experiment [8] (500 nM) it was 98%.
On to `CCn1cc(-c2ccnc3[nH]c(-c4cccc(CN(C)C)c4)cc23)c(-c2ccc(NC(=O)N(C)C)cc2)n1` [GSK1070916], for which the remaining activity at 0.1 µM in experiment [1] worked out at 95.2%; in experiment [2] it was 103%; in experiment [3], 81.9%; in experiment [4], 94.7%; in experiment [5], 93.8%; in experiment [6], 89.1%. In addition, the remaining activity at 0.1 µM in experiment [7] was 97.2%; in experiment [8] it was 99.1%.
`O=C(O)[C@]1(Cc2cccc(Nc3nccs3)n2)CC[C@@H](Oc2cccc(Cl)c2F)CC1` [MK-5108]: the remaining activity at 0.1 µM in experiment [1] amounted to 53.5%; in experiment [2], 92.8%; in experiment [3] it was 93.7%; in experiment [4], 104%; in experiment [5], 89.6%; in experiment [6], 87.2%. For the same molecule, the results for the remaining activity at 0.1 µM in experiment [7] and in experiment [8] were 106% and 94.3%, respectively. Further, the remaining activity at 0.5 µM in experiment [1] (500 nM) came out at 16.7%; in experiment [2] (500 nM), 76.2%; in experiment [3] (500 nM), 81.2%; in experiment [4] (500 nM), 101%; in experiment [5] (500 nM), 62.1%; in experiment [6] (500 nM), 86.5%. Moreover, the remaining activity at 0.5 µM in experiment [7] (500 nM) was determined as 97.3%; in experiment [8] (500 nM), 102%.
